Source: US11180461B2, “Triazoles as Kv3 inhibitors” (AUTIFONY THERAPEUTICS LIMITED, priority 2012, dated 2021)

How the values were obtained:
[1] = tested on: chinchilla model of acute noise-induced hearing loss; experiment: Chinchilla model of acute noise-induced hearing loss (auditory brainstem response thresholds); type: in vivo; details: 60 mg/kg i.p., doses 12 hours apart, 5 pre- and 5 post-noise; 21 days after noise exposure; p<0.01
Procedure: The otoprotective efficacy of COMPOUND X (i.e. the ability to prevent or reduce the development of permanent acute noise-induced hearing loss) was investigated using a chinchilla model of acute noise-induced hearing loss, as follows:
Subjects comprised male, 3 year old chinchillas (Laniger), 10 animals per group.
Vehicle (20% Captisol®, 0.5% w/v HPMC K15M and 0.5% w/v Tween-80™) was prepared using autoclaved deionized water not more than one week prior to use. A suspension of COMPOUND X in the vehicle at 10 mg/ml was prepared less than 24 hours prior to administration. COMPOUND X was administered at 60 mg/kg via the intraperitoneal route, with doses 12 hours apart. Five injections were given pre-noise exposure and five post-noise exposure. […]
Auditory brainstem responses (ABRs) were collected prior to noise exposure and 21 days after noise exposure. […] Thresholds were measured in response to tone-bursts with 1 ms rise/fall and a 0 ms plateau gated by a Blackman envelope and centred at the frequencies of 2, 4, 6 and 8 kHz, presented at 30/s. […]
The thresholds for ABRs at the four different sound frequencies at day 21 post-noise exposure were compared to the thresholds at baseline, prior to noise exposure in order to determine a threshold shift for each animal. The data were then analysed using a 2-way ANOVA, with treatment and frequency as main factors.

[2] = tested on: Long Evans adult rats with noise-induced tinnitus; experiment: Model of tinnitus: gap pre-pulse inhibition of acoustic startle in noise-exposed Long Evans rats; type: in vivo, rat
Procedure: Twenty Long Evans adult rats were exposed to a unilateral 116 dB, 16 kHz octave-band noise for one hour in order to induce hearing loss and chronic tinnitus. Ten control rats received a sham noise exposure. Approximately thirty days after the noise exposure hearing thresholds were determined for each animal. Animals were then assessed for the presence of tinnitus using a gap pre-pulse inhibition of acoustic startle paradigm similar to that described by Turner J G, Brozoski T J, Bauer C A, Parrish J L, Myers K, Hughes L F, Caspary D M. Behav Neurosci. 2006 February; 120(1):188-95. In this test, rats were placed on a motion sensor that measured the startle amplitude of the animals in response to a sudden loud sound (115-dB SPL, 20-ms duration) emitted by a loudspeaker located in the ceiling of the cage. It is known that a brief, non-startling sound or “pre-pulse”, prior to the startle sound can reduce the startle amplitude, a phenomenon known as pre-pulse inhibition. In the present study, the pre-pulse is substituted by a 50 ms silence gap in a constant sound 100 ms prior to the startle sound. If the gap is perceived by the animal, then then startle response will be inhibited. However, if the animal has tinnitus, then the tinnitus sound may fill the gap and will startle as if there were no gap (reduced or absent gap pre-pulse inhibition). A drug that reduces the tinnitus will therefore restore gap pre-pulse inhibition.
The pitch of tinnitus is typically in the same range as the hearing loss, which in turn is most marked at the frequencies of the noise trauma. Thus each animal was tested for gap pre-pulse inhibition using gaps in tones of 10, 12.5, 16, 20, and 25 kHz at 60-65 dB SPL. As a control, the animals were also tested with gaps in a broadband sound of the same amplitude. Irrespective of whether the animals have tinnitus, it is unlikely that the tinnitus would fill the gap in the broadband sound, and thus this provides a control for whether the noise-trauma might have affected the gap detection ability of the rats. […]

[3] = tested on: aged and young Fischer 344 (F344) rats; experiment: Model of central auditory processing deficit: auditory gap detection (gap-induced PPI of startle) in F344 rats; type: in vivo, rat
Procedure: The ability of COMPOUND X to improve auditory temporal processing in the rat, was examined using an auditory gap detection procedure in aged female Fischer 344 (F344) rats with an average age of 19.5±1.9 months, and in young F344 rats with an average age of 3 months. COMPOUND X, at doses of 30 or 60 mg/kg, or vehicle were administered via the intraperitoneal route on three test occasions using a crossover design, with an interval of at least 7 days between occasions.
Hearing thresholds in each rat were determined under anaesthesia using the auditory brainstem response (ABR) prior to the first drug administration. ABRs were recorded using subcutaneous needle electrodes in a sound attenuated chamber using pure tone bursts as stimuli (5 ms duration, frequency range 2-40 kHz).
The gap detection procedure evaluated the ability of the rats to detect short gaps in background noise by measuring the degree of inhibition that the gap afforded in the animal's startle response to a subsequent loud sound, a phenomenon known as pre-pulse inhibition (PPI). Testing was performed in a sound attenuated chamber. During the testing procedure, the rat was confined to a small wire mesh cage on a motion-sensitive platform. The animal's reflex movements were detected and transduced by a piezoelectric accelerometer. The startle response was evaluated in a 100 ms window beginning at the onset of the startle stimulus (a 110 dB SPL broad-band noise burst of 50 ms duration embedded in a background continuous broad-band noise of 65 dB SPL). Acoustic stimulation was presented via a loudspeaker placed 12 cm above the platform inside the chamber.
PPI of the startle response was induced by gaps of different durations (5-50 ms) preceding the startle stimulus by 70 ms. The degree of PPI was calculated from the startle response amplitude in the presence of the gap relative to the startle response amplitude in the absence of the gap. A two-way ANOVA with the Bonferroni post-hoc test was used to compare the degree of PPI before and after the drug applications.

Kv3 channels = details: cited from earlier work

| Compound | permanent threshold shift in ABR [1] | gap pre-pulse inhibition ([2]; animals with evidence of tinnitus, 30 mg/kg i.p. 1-2 hours prior to testing, p<0.05) | gap pre-pulse inhibition ([2]; animals with evidence of tinnitus, 60 mg/kg i.p. 1-2 hours prior to testing, p=0.01) | gap pre-pulse inhibition ([2]; control animals or noise-exposed animals without tinnitus) | degree of PPI (gap detection) ([3]; aged F344 rats, 30 mg/kg i.p., 30 ms gap duration, p<0.001) | degree of PPI (gap detection) ([3]; aged F344 rats, 30 mg/kg i.p., gap durations of 5, 10, and 15 ms) | degree of PPI (gap detection) ([3]; aged F344 rats, 60 mg/kg i.p., 30 ms gap duration, p<0.001) | degree of PPI (gap detection) ([3]; young F344 rats, 30 mg/kg i.p.) | degree of PPI (gap detection) ([3]; young F344 rats, 60 mg/kg i.p.) | inhibition of Kv3 channels (Kv3 channels) |
| --- | --- | --- | --- | --- | --- | --- | --- | --- | --- | --- |
| CC[C@@]1(C)NC(=O)N(c2cnc(Oc3ccc(C)c(OC(F)(F)F)c3)nc2)C1=O [COMPOUND X, (5R)-5-ethyl-5-methyl-3-[2-({4-methyl-3-[(trifluoromethyl)oxy]phenyl}oxy)-5-pyrimidinyl]-2,4-imidazolidinedione] | significantly reduced | significantly restored | significantly restored | no effect | significantly increased | significant improvement | significantly increased | tended to increase the degree of PPI, but the increases were not significant | tended to increase the degree of PPI, but the increases were not significant | – |
| CC[N+](CC)(CC)CC [Tetraethylammonium (TEA), Tetraethylammonium] | – | – | – | – | – | – | – | – | – | inhibit the channels at low millimolar concentrations |
